Experimental data as given in patent US11931376B1, “Methods for the treatment of chronic kidney disease” (RENATUS INC., priority 2022, dated 2024).

What was measured:
[1] = test system: macrophage cell line (Raw264.7); test: Cell viability assay (CCK-8); format: cell-based; settings: cyclodextrin 20 mg/ml, 24 hours, 37° C.
Description: The cells were seeded in a 96-well plate at a density of 5×10^4 cells and 24 hours later cyclodextrin were treated at a concentration of 20 mg/ml for 24 hours at 37° C. CCK-8 agent was added, 10 μl per well. After 3 hours, absorbance at 450 nm was measured to assess cellular viability.

[2] = test system: red blood cells (whole blood); test: Hemolysis assay; format: cell-based, C57/BL6 mice; settings: cyclodextrin 50 mg/ml, 1 hour, 37° C., absorbance at 540 nm
Description: Whole blood from wilt-type C57/BL6 mice was used for assessment of hemolytic activity of cyclodextrins. The whole blood samples (300 μl) were mixed with each cyclodextrin at a concentration of 50 mg/ml and incubated for 1 hour at 37° C. After centrifugation at 3,000 g for 5 minutes, the absorbance at 540 nm of the supernatant was measured.

albuminuria = test: Albuminuria in diabetic kidney disease mouse model; format: in vivo, db/db mice; settings: subcutaneous 2 g/kg twice a week for 4 weeks
Description: To investigate the effects of cyclodextrins on albuminuria, 8-week-old male db/db mice were used to model diabetes type II, which is susceptible to albuminuria. In the experimental setup, Oligo-GCD (4103 Da), Oligo-HPGCD (3825 Da) and HPBCD-B were subcutaneously injected at a dose of 2 g/kg twice a week for 4 weeks. Control mice were given PBS only. After the treatment is completed, 24-hour urine samples were collected and the concentration of albumin in the urine was measured (FIG. 8A).

Murine mesangial cells = test: Cholesterol efflux in kidney mesangial cells (flow cytometry); format: cell-based, C57BL/6 mice; settings: mesangial cells loaded with NBD-CC for 3 hours, cyclodextrin 5 mg/ml
Description: Murine mesangial cells derived from the kidney of wild-type C57BL/6 mice were maintained in DMEM, 10% fetal bovine serum (FBS), 100 U/ml penicillin G, 100 μg/ml streptomycin, and 2 mM L-glutamine. The cells were seeded at a density of 10^6 cells/well one day before treatment with NBD-CC. The cells were treated with 100 μg of NBD-CC per 10^6 cells for 3 hours and then washed thoroughly twice. Then, cyclodextrins were treated at a concentration of 5 mg/ml. For the assessment of cholesterol efflux and efflux-mediating proteins ABCA1 and ABCG1, flow cytometry was performed.

Structure (SMILES) | cell viability [1] | hemolytic activity [2] | ACR reduction compared to control (albuminuria) [%] | albumin/creatinine ratio (ACR) (albuminuria; urine at end of week 4) [µg/mg] | cellular cholesterol content (Murine mesangial cells) [%]
CC(O)COC[C@H]1O[C@@H]2O[C@H]3[C@H](O)[C@@H](O)[C@@H](O[C@H]4[C@H](O)[C@@H](O)[C@@H](O[C@H]5[C@H](O)[C@@H](O)[C@@H](O[C@H]6[C@H](O)[C@@H](O)[C@@H](O[C@H]7[C@H](O)[C@@H](O)[C@@H](O[C@H]8[C@H](O)[C@@H](O)[C@@H](O[C@H]1[C@H](O)[C@H]2O)O[C@@H]8COCC(C)O)O[C@@H]7COCC(C)O)O[C@@H]6COCC(C)O)O[C@@H]5COCC(C)O)O[C@@H]4COCC(C)O)O[C@@H]3COCC(C)O (single isomer, unassigned) [HPBCD-B, hydroxypropyl-beta-cyclodextrin] | induce cell viability loss | disrupt the plasma membrane and induce hemolysis | 22.6 | 190.9 | 48.2
CC(O)COC[C@H]1O[C@@H]2O[C@H]3[C@H](O)[C@@H](O)[C@@H](O[C@H]4[C@H](O)[C@@H](O)[C@@H](O[C@H]5[C@H](O)[C@@H](O)[C@@H](O[C@H]6[C@H](O)[C@@H](O)[C@@H](O[C@H]7[C@H](O)[C@@H](O)[C@@H](O[C@H]8[C@H](O)[C@@H](O)[C@@H](O[C@H]1[C@H](O)[C@H]2O)O[C@@H]8COCC(C)O)O[C@@H]7COCC(C)O)O[C@@H]6COCC(C)O)O[C@@H]5COCC(C)O)O[C@@H]4COCC(C)O)O[C@@H]3COCC(C)O (single isomer, unassigned) [HPBCD-C, hydroxypropyl-beta-cyclodextrin] | induce cell viability loss | disrupt the plasma membrane and induce hemolysis | – | – | 50.5
CC(O)COC[C@H]1O[C@@H]2O[C@H]3[C@H](O)[C@@H](O)[C@@H](O[C@H]4[C@H](O)[C@@H](O)[C@@H](O[C@H]5[C@H](O)[C@@H](O)[C@@H](O[C@H]6[C@H](O)[C@@H](O)[C@@H](O[C@H]7[C@H](O)[C@@H](O)[C@@H](O[C@H]8[C@H](O)[C@@H](O)[C@@H](O[C@H]1[C@H](O)[C@H]2O)O[C@@H]8COCC(C)O)O[C@@H]7COCC(C)O)O[C@@H]6COCC(C)O)O[C@@H]5COCC(C)O)O[C@@H]4COCC(C)O)O[C@@H]3COCC(C)O (single isomer, unassigned) [HPBCD-A, hydroxypropyl-beta-cyclodextrin] | induce cell viability loss | disrupt the plasma membrane and induce hemolysis | – | – | 54.1
